Assay results: US20200261497A1, “Iodinated Contract Medium for Use as a Medicament for Thyroid Radioprotection” (priority 2017, published 2020)

Columns and labels:
human salivary glands = experiment: 99mTcO4- scintigraphy of the human salivary glands; type: in vivo; conditions: patient, intravenous injection two weeks before scintigraphy
Protocol: (§1) FIG. 4: Effect of Iomeron on the uptake of ^99m-pertechnetate by the human thyroid and salivary glands. Scintigraphies of a naïve patient (A) or a patient who has been administered with Iomeron two weeks before the scintigraphy. SG: salivary glands; T: thyroid; R: right; L: left.
(§2) A “naïve” patient and a patient who had received an intravenous injection of Iomeron 350 two weeks before scintigraphy were involved. On the day of the scintigraphy, patients were injected intravenously with an activity of 1 MBq/kg and 600 s scans was performed 15 min later.

NIS [1] = experiment: NIS expression in mouse thyroid glands (immunohistochemistry, Western blot); type: in vivo; conditions: four days after intravenous injection
Protocol: (§3) FIG. 6: Analysis of NIS expression in the thyroid and salivary glands in response to Iomeron. Saline buffer (A, C) or Iomeron (B, D) were administered intravenously. Four days later, animals were culled and NIS expression in the thyroid glands (A, B) and salivary glands (C, D) were analyzed by immunohistochemistry (n=3 per group). Thyroids and salivary glands were also processed for Western blot analysis of NIS and β-actin expression (n=2 per group).
(§4) Thyroid membrane proteins were subjected to SDS-PAGE electrophoresis as previously described (Cambien et al., 2014). Western blotting was performed with antibody 25 anti-mouse NIS, an affinity-purified rabbit immunoreactive serum fraction, or with an anti-β-actin antibody (Sigma).
(§5) After culling the animals, thyroids and salivary glands were dissected, paraffin embedded, and cut into 4-μm-thick sections. The paraffin was then removed and the sections were rehydrated and subjected to an antigen retrieval treatment with a solution of citrate buffer, pH 6, using an automate (PT Link, Dako). Immunostaining was performed following a standard protocol (Dako EnVision™ FLEX using an automated immunostainer, Autostainer, Dako). Endogenous peroxide was blocked using the EnVision™ FLEX Peroxidase-Blocking Reagent. […]

HT29-NIS cells = experiment: 125I iodide uptake in HT29-NIS cells; type: cell-based, human; conditions: one hour incubation with 125I, Iomeron 100 μL corresponding to 70 mg of iomeprol
Protocol: (§6) FIG. 2: Effect of Iomeron on iodide uptake of established cell lines expressing NIS. HT29-NIS (A) or PCCL3 (B) cells were incubated for one hour with ^125I in the presence of an equal volume of either saline, Iomeron (100 μL corresponding to 70 mg of iomeprol), NaI or perchlorate. Cells were then rapidly washed with saline buffer and lysed. Aliquots of lysates were counted in a y counter. The results are expressed as percentage of uptake in the control condition. The data presented are the mean±SEM of triplicates and are representative of three independent experiments. n.s: non statistically significant.
(§7) The human colorectal cancer cell line HT-29 (HTB-38, ATCC) was transfected with pcDNA3.1-mNIS (murine NIS) (Perron et al., 2001) using the FuGENE 6 reagent (Roche) according to the manufacturer's instructions. Stable clones were selected by addition of 1 mg/mL geneticin (G418) to the medium 3 days after transfection. One clone with high functional expression of NIS was selected (Richard-Fiardo et al., 2012). The rat follicular thyroid cell line PCCL3 was obtained from Dr. A. De La Vieja (Madrid, Spain) and cultured as previously described (Leoni et al., 2011). Measurement of in vitro iodide uptake was performed as previously described (Groot-Wassink et al., 2002).
(§8) We next examined whether iomeprol and its contaminating free iodide could affect iodide uptake in NIS-expressing cell lines. HT29-NIS (a human colorectal carcinoma cell line expressing NIS) (FIG. 2A) or PCCL3 (a rat follicular thyroid cell line) (FIG. 2B) cells were incubated with ^125I in the presence of either saline buffer, Iomeron, NaI, or perchlorate (NaClO4). After one hour, cells were washed and cellular ^125I content was determined.

human thyroid = experiment: 99mTcO4- scintigraphy of the human thyroid; type: in vivo; conditions: patient, intravenous injection two weeks before scintigraphy
Protocol: as §1, §2

mouse thyroid = experiment: 99m-pertechnetate uptake by the mouse thyroid (microSPECT/CT); type: in vivo
Protocol: (§9) FIG. 3: Effect of Iomeron on the uptake of ^99m-pertechnetate by the mouse thyroid and salivary glands. SPECT/CT imaging of mice administered 20 MBq ^99m-pertechnetate was performed (day 0). At the end of the scan, Iomeron was administered intravenously. One, four, eight, twelve and eighteen days later, animals were injected with 20 MBq ^99m-pertechnetate and new scans were performed. The data presented represent the percentage of radiotracer injected taken up by the thyroid (A) and salivary glands (B). (n=3 per condition). ***p<0.001; n.s: non statistically significant.
FIG. 5: Effect of KI on the uptake of ^99m-pertechnetate by the mouse thyroid and salivary glands. SPECT/CT imaging of mice administered 20 MBq ^99m-pertechnetate was performed (day 0). Animals were injected intraperitoneally with KI (9 mg in 180 μL) and scanned 30 minutes later. Twenty-four hours later, animals were injected with 20 MBq ^99m-pertechnetate and new scans were performed. The data presented represent the percentage of radiotracer injected taken up by the thyroid (A) and salivary glands (B). (n=3 per condition). *p<0.05; ***p<0.001.
FIG. 7: Evaluation of the effect of different modes of administration of Iomeron on the uptake of ^99m-pertechnetate by the thyroid. SPECT/CT imaging of mice administered 20 MBq ^99m-pertechnetate was performed (day 0). At the end of the scan, intravenous, sublingual, enteral, and intraperitoneal administrations of Iomeron were performed. Four days later, animals were injected with 20 MBq ^99m-pertechnetate and new scans were performed. The data presented represent the percentage of radiotracer injected taken up by the thyroid (A) and salivary glands (B). (n=2 per condition). ***p<0.001.
FIG. 9: Effect of Telebrix, Optiray and Omnipaque on the uptake of ^99mpertechnetate by the mouse thyroid. SPECT/CT imaging of mice administered 20 MBq ^99mpertechnetate was performed (day 0). At the end of the scan, mice received a sublingual administration […] of Telebrix or Optiray, or Omnipaque. Two days later, animals were injected with 20 MBq ^99mpertechnetate and new scans were performed. The data presented represent the percentage of radiotracer injected taken up by the thyroid. (n=3 per condition). ***p<0.001; n.s: non statistically significant. % IA: percentage of the injected activity.
Eight-week-old female C57B/6J mice were obtained from Janvier (Le Genest Saint Isle, France). Animal housing and procedures were conducted according to French Agriculture Ministry guidelines and were approved by the local ethics committee (Ciepal NCE/2014-211).
Intravenous and intraperitoneal administration was performed by injecting 100 μL Iomeron diluted 50/50 (vol/vol) with phosphate-buffered saline (corresponding to 18 mg iomeprol). Enteral administration was performed by gavage of 100 μL Iomeron diluted 50/50 (vol/vol) with phosphate-buffered saline (corresponding to 18 mg iomeprol). Sublingual administration was performed on anesthetized mice by five sublingual depositions of 5 μL Iomeron, with a delay of 10 minutes between two administrations. This procedure led to the administration of […] iomeprol.
^99mTc pertechnetate (^99mTcO4^−) was obtained from a freshly eluted ^99Mo/^99mTc generator. Animals were administered intraperitoneally with activities of 20 MBq ^99mTcO4^−. Thyroid and salivary gland tracer uptake was measured at different times using a dedicated microSPECT/CT scanner (eXplore speCZT CT120, GE) under gas anesthesia (air and 1-2% isoflurane) in an air-warmed imaging chamber (Minerve, Esternay, France) to maintain body temperature at 37° C. The SPECT scanner uses a stationary full ring of CZT detectors and a rotating 7-pinhole (1 mm opening) collimator. A total of 350 projections were acquired over 360° in 8 minutes. Images were reconstructed using the manufacturer's 3D-OSEM algorithm (5 subsets and 11 iterations), which incorporates the system's collimator-detector response function and scatter correction. […]

PCCL3 cells = experiment: 125I iodide uptake in PCCL3 cells; type: cell-based, rat; conditions: one hour incubation with 125I, Iomeron 100 μL corresponding to 70 mg of iomeprol
Protocol: as §6, §7, §8

NIS [2] = experiment: NIS expression in mouse salivary glands (immunohistochemistry, Western blot); type: in vivo; conditions: four days after intravenous injection
Protocol: as §3, §4, §5

mouse salivary glands = experiment: 99m-pertechnetate uptake by the mouse salivary glands (microSPECT/CT); type: in vivo
Protocol: as §9
FIG. 5: Effect of KI on the uptake of ^99m-pertechnetate by the mouse thyroid and salivary glands. […]
^99mTc pertechnetate (^99mTcO4^−) was obtained from a freshly eluted ^99Mo/^99mTc generator. […] Thyroid and salivary gland tracer uptake was measured at different times using a dedicated microSPECT/CT scanner (eXplore speCZT CT120, GE) under gas anesthesia (air and 1-2% isoflurane) in an air-warmed imaging chamber (Minerve, Esternay, France) to maintain body temperature at 37° C. […] Reconstructed images were analyzed and quantified using AMIDE software (Loening and Gambhir, 2003). Tracer activities in the various relevant organs were calculated. […] Uptakes were expressed as percentages of the injected dose (% ID) after decay correction (Cambien et al., 2014).

thyroid = conditions: KI tablets, prevention of 131-I entry into the thyroid; cited from earlier work
[3] = after intravenous administration, scans on days 1, 4, 8, 12, 18

CN(C(=O)CO)c1c(I)c(C(=O)NCC(O)CO)c(I)c(C(=O)NCC(O)CO)c1I (stereo not drawn) [Iomeron, iomeprol]
pertechnetate uptake in the salivary glands (human salivary glands): radiotracer uptake in the salivary glands
NIS expression in thyroids, immunohistological analysis (NIS [1]): hardly detectable
NIS expression in the thyroid glands, western blot (NIS [1]; compared with controls): dramatic decrease
iodide uptake (125I) (HT29-NIS cells): failed to affect this uptake significantly
pertechnetate uptake in the thyroid (human thyroid): lack of fixation in the thyroid region
radiotracer uptake by the thyroid (mouse thyroid; 24 hours after intravenous administration): dramatic reduction
duration of low thyroid uptake capacity (mouse thyroid; [3]): remained low for eight days
recovery of thyroid uptake capacity (mouse thyroid; [3]): recovery was observed from day 12
radiotracer uptake by the thyroid (mouse thyroid; enteral administration (gavage, 18 mg iomeprol), four days later): neither enteral nor intraperitoneal administration affected radiotracer uptake
radiotracer uptake by the thyroid (mouse thyroid; intraperitoneal administration (18 mg iomeprol), four days later): neither enteral nor intraperitoneal administration affected radiotracer uptake
radiotracer uptake by the thyroid (mouse thyroid; intravenous administration (18 mg iomeprol), four days later): marked reduction
radiotracer uptake by the thyroid (mouse thyroid; sublingual administration (9 mg iomeprol), four days later): marked reduction
iodide uptake (125I) (PCCL3 cells): failed to affect this uptake significantly
NIS expression in ductal cells of the salivary glands, immunohistological analysis (NIS [2]): detectable
NIS expression in the salivary glands, western blot (NIS [2]; compared with controls): no significant difference
uptake by the salivary glands (mouse salivary glands; after intravenous administration, same animals): failed to affect iodide uptake
uptake to the salivary glands (mouse salivary glands; intravenous, sublingual, enteral or intraperitoneal administration, four days later): not affected in any condition

[I-].[K+] [KI, potassium iodide]
duration of the protective effect (thyroid): 24 h
ability of the thyroid to take up pertechnetate (mouse thyroid; 30 minutes after intraperitoneal injection (9 mg in 180 μL)): reduced
ability of the thyroid to take up pertechnetate (mouse thyroid; 24 hours after intraperitoneal injection (9 mg in 180 μL)): recovered

[I-].[Na+] [NaI]
iodide uptake (125I) (HT29-NIS cells): inhibited iodide uptake
iodide uptake (125I) (PCCL3 cells): inhibited iodide uptake

[O-][Cl+3]([O-])([O-])O [perchlorate]
iodide uptake (125I) (HT29-NIS cells): inhibited iodide uptake
iodide uptake (125I) (PCCL3 cells): inhibited iodide uptake
